Source: patent US12492181B2, “Gem-disubstituted piperidine melanocortin subtype-2 receptor (MC2R) antagonists and uses thereof” (Crinetics Pharmaceuticals, Inc., priority 2019, dated 2025)

Molecular target: T1, hMC2 receptor (crude hMC2R membranes from CRE-bla-CHO-K1 cells stably expressing hMC2 receptor and hMRAP accessory protein) (Homo sapiens, UniProt Q01718)
T1 construct: crude membrane fractions
Experiment: hMC2 membrane binding assay ([125I]ACTH (1-39) Tyr23, SPA)
Details: displacement of 0.2 nM [125I]ACTH (1-39) Tyr23 from hMC2R membranes, 1.5 hours at room temperature; read-out: MC2R binding potency
Protocol: Crude membrane fractions are prepared from CRE-bla-CHO-K1 cells stably expressing hMC2 receptor and hMRAP accessory protein (Thermo Fisher). The cells are grown to 85-100% confluence on standard tissue culture dishes in GlutaMax DMEM growth media (Gibco) with following additives: 10% dialyzed FBS (Gemini), 0.1 mM NEAA (Gibco), 25 mM HEPES (Gibco), 5 μg/mL blasticidin (Goldbio), 100 μg/mL zeocin (Invitrogen), 600 μg/mL hygromycin (Goldbio). To prepare membranes, cells are scraped and collected in 1× Dulbecco's phosphate buffered saline (Corning) and then pelleted at 1000 RPM's. The cell pellet is reconstituted in membrane preparation buffer (20 mM HEPES, 6 mM MgCl2 and 1 mM EGTA, protease inhibitor tablets (Pierce) adjusted to pH 7.4), homogenized using a dounce homogenizer, and the resulting membrane fraction is pelleted by centrifugation at 12,000 RPM's. The membrane pellet is resuspended in membrane preparation buffer, snap freezed and stored at −80° C. for later use.
Binding Assay for hMC2 Antagonists Protocol:
The hMC2 membrane binding assay utilizes the following components: radiolabel [^125I]ACTH (1-39) Tyr23 (PerkinElmer), wheatgerm agglutinin coated PVT SPA beads (PerkinElmer), crude hMC2R membranes, and compounds. Briefly hMC2R membranes are incubated with SPA beads in binding assay buffer (50 mM HEPES, 5 mM MgCl2, 1 mM CaCl2), 0.20% BSA, protease inhibitor tablets (Pierce) adjusted to pH7.4) prior to assay initiation. […] Assay plates are read using a Top Count NXT and Ki values for compounds are determined using a GraphPad Prism 6 non-linear regression analysis.

T1 sequence (Q01718 whole entry): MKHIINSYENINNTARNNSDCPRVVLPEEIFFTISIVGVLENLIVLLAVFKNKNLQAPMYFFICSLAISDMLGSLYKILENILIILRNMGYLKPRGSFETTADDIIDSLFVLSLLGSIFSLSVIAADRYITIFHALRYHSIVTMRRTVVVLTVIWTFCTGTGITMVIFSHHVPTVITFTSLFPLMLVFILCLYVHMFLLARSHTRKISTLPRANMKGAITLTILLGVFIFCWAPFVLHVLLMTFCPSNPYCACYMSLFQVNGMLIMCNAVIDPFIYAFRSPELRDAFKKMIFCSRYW
T1 sequence (Q8TCY5 whole entry partner): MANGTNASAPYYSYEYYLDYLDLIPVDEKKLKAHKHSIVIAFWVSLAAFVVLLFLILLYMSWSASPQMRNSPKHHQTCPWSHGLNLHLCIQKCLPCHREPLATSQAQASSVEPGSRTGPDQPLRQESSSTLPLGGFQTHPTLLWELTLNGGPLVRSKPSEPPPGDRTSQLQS

| SMILES | Ki |
| --- | --- |
| COc1ccccc1-c1ccc(C2(C(=O)NC[C@@H]3C[C@H](F)CN3)CCN(c3ccc(C(F)(F)F)cc3C#N)CC2)cn1 [Compound 1-246, 1-[2-cyano-4-(trifluoromethyl)phenyl]-N-{[(2S,4S)-4-fluoropyrrolidin-2-yl]methyl}-4-[6-(2-methoxyphenyl)pyridin-3-yl]piperidine-4-carboxamide] | < 10 nM |
| CN1CC[C@H](NC(=O)C2(c3ccc(-c4cccn4C)nn3)CCN(c3ccc(Cl)cc3C#N)CC2)C1 [Compound 1-170, 1-(4-chloro-2-cyanophenyl)-4-[6-(1-methyl-1H-pyrrol-2-yl)pyridazin-3-yl]-N-[(3S)-1-methylpyrrolidin-3-yl]piperidine-4-carboxamide] | < 10 nM |
| COc1ccccc1-c1ccc(C2(NC(=O)O[C@@H]3CCN(C)C3)CCN(c3ccc(C(F)(F)F)cc3C#N)CC2)cn1 [Compound 2-54, (3R)-1-methylpyrrolidin-3-yl N-{1-[2-cyano-4-(trifluoromethyl)phenyl]-4-[6-(2-methoxyphenyl)pyridin-3-yl]piperidin-4-yl}carbamate] | < 10 nM |
| CN1C[C@@H](F)C[C@H]1CNC(=O)C1(c2ccc(-c3cccn3C)nc2)CCN(c2ccc(C(F)(F)F)cc2C#N)CC1 [Compound 1-277, 1-[2-cyano-4-(trifluoromethyl)phenyl]-N-{[(2S,4S)-4-fluoro-1-methylpyrrolidin-2-yl]methyl}-4-[6-(1-methyl-1H-pyrrol-2-yl)pyridin-3-yl]piperidine-4-carboxamide] | < 10 nM |
| Cn1cccc1-c1ccc(C2(NC(=O)[C@H]3CCNC3)CCN(c3ccc(C(F)(F)F)cc3C#N)CC2)cn1 [Compound 2-44, (3S)—N-{1-[2-cyano-4-(trifluoromethyl)phenyl]-4-[6-(1-methyl-1H-pyrrol-2-yl)pyridin-3-yl]piperidin-4-yl}pyrrolidine-3-carboxamide] | < 10 nM |
| Cn1cccc1-c1ccc(C2(C(=O)N[C@@H]3CN4CCC3CC4)CCN(c3ccc(C(F)(F)F)cc3C#N)CC2)cn1 [Compound 1-187, N-[(3S)-1-azabicyclo[2.2.2]octan-3-yl]-1-[2-cyano-4-(trifluoromethyl)phenyl]-4-[6-(1-methyl-1H-pyrrol-2-yl)pyridin-3-yl]piperidine-4-carboxamide] | < 10 nM |
| COc1ccsc1-c1ccc(C2(C(=O)N[C@@H]3CCN(C)C3)CCN(c3ccc(C(F)(F)F)cc3C#N)CC2)cn1 [Compound 1-80, 1-[2-cyano-4-(trifluoromethyl)phenyl]-4-[6-(3-methoxythiophen-2-yl)pyridin-3-yl]-N-[(3R)-1-methylpyrrolidin-3-yl]piperidine-4-carboxamide] | < 10 nM |
| CCc1ccccc1-c1ccc(C2(C(=O)N[C@H]3CCN(C)C3)CCN(c3ccc(C(F)(F)F)cc3Cl)CC2)cn1 [Compound 1-156, 1-[2-chloro-4-(trifluoromethyl)phenyl]-4-[6-(2-ethylphenyl)pyridin-3-yl]-N-[(3S)-1-methylpyrrolidin-3-yl]piperidine-4-carboxamide] | < 10 nM |

Other lines, results leading:

| Ki | SMILES |
| --- | --- |
| < 10 nM | CCOc1ncccc1-c1ncc(C2(C(=O)N[C@@H](C)CN(C)C)CCN(c3ccc(C(F)(F)F)cc3C#N)CC2)cc1F [Compound 1-319, 1-[2-cyano-4-(trifluoromethyl)phenyl]-N-[(2S)-1-(dimethylamino)propan-2-yl]-4-{2′-ethoxy-3-fluoro-[2,3′-bipyridin]-5-yl}piperidine-4-carboxamide] |
| < 10 nM | CCOc1ncccc1-c1ccc(C2(C(=O)N[C@H]3CCN(C)C3)CCN(c3ccc(Cl)cc3C#N)CC2)nn1 [Compound 1-139, 1-(4-chloro-2-cyanophenyl)-4-[6-(2-ethoxypyridin-3-yl)pyridazin-3-yl]-N-[(3S)-1-methylpyrrolidin-3-yl]piperidine-4-carboxamide] |
| < 10 nM | CCOc1ncccc1-c1ncc(C2(C(=O)NCCNC)CCN(c3ccc(C(F)(F)F)cc3Cl)CC2)cc1F [Compound 1-299, 1-[2-chloro-4-(trifluoromethyl)phenyl]-4-{2′-ethoxy-3-fluoro-[2,3′-bipyridin]-5-yl}-N-[2-(methylamino)ethyl]piperidine-4-carboxamide] |
| < 10 nM | COc1ccccc1-c1ccc(C2(C(=O)NCCN(C)C)CCN(c3ccc(C(F)(F)F)cc3C#N)CC2)cn1 [Compound 1-212, 1-[2-cyano-4-(trifluoromethyl)phenyl]-N-[2-(dimethylamino)ethyl]-4-[6-(2-methoxyphenyl)pyridin-3-yl]piperidine-4-carboxamide] |
| < 10 nM | CN(C)CCNC(=O)C1(c2ccc(-c3cccn3C)nc2)CCN(c2ccc(C(F)(F)F)cc2F)CC1 [Compound 1-276, N-[2-(dimethylamino)ethyl]-1-[2-fluoro-4-(trifluoromethyl)phenyl]-4-[6-(1-methyl-1H-pyrrol-2-yl)pyridin-3-yl]piperidine-4-carboxamide] |
| < 10 nM | COc1ccccc1-c1ccc(C2(C(=O)NCC3CN(C)C3)CCN(c3ccc(C(F)(F)F)cc3C#N)CC2)cn1 [Compound 1-211, 1-[2-cyano-4-(trifluoromethyl)phenyl]-4-[6-(2-methoxyphenyl)pyridin-3-yl]-N-[(1-methylazetidin-3-yl)methyl]piperidine-4-carboxamide] |
| < 10 nM | COc1ccccc1-c1ccc(C2(C(=O)NC[C@@H]3CCN3)CCN(c3ccc(C(F)(F)F)cc3C#N)CC2)cn1 [Compound 1-213, N-{[(2S)-azetidin-2-yl]methyl}-1-[2-cyano-4-(trifluoromethyl)phenyl]-4-[6-(2-methoxyphenyl)pyridin-3-yl]piperidine-4-carboxamide] |
| 10 to 100 nM | CCOc1ncccc1-c1ccc(C2(C(=O)N[C@@H]3CCN(C)C3)CCN(c3ccc(C(F)(F)F)cc3OC)CC2)cc1 [Compound 1-159, 4-[4-(2-ethoxypyridin-3-yl)phenyl]-1-[2-methoxy-4-(trifluoromethyl)phenyl]-N-[(3R)-1-methylpyrrolidin-3-yl]piperidine-4-carboxamide] |
| < 10 nM | CCOc1ncccc1-c1ccc(C2(C(=O)N[C@H]3CCN(C)C3)CCN(c3ccc(OC(F)(F)F)cc3C#N)CC2)cn1 [Compound 1-39, 1-[2-cyano-4-(trifluoromethoxy)phenyl]-4-{2′-ethoxy-[2,3′-bipyridin]-5-yl}-N-[(3S)-1-methylpyrrolidin-3-yl]piperidine-4-carboxamide] |
| < 10 nM | CCOc1ncccc1-c1ncc(C2(C(=O)N[C@@H](C)CN(C)C)CCN(c3ccc(Cl)cc3C#N)CC2)cc1F [Compound 1-325, 1-(4-chloro-2-cyanophenyl)-N-[(2S)-1-(dimethylamino)propan-2-yl]-4-{2′-ethoxy-3-fluoro-[2,3′-bipyridin]-5-yl}piperidine-4-carboxamide] |
| < 10 nM | CCOc1ccccc1-c1ccc(C2(NC(=O)CN(C)C)CCN(c3ccc(C(F)(F)F)cc3C#N)CC2)cn1 [Compound 2-34, N-{1-[2-cyano-4-(trifluoromethyl)phenyl]-4-[6-(2-ethoxyphenyl)pyridin-3-yl]piperidin-4-yl}-2-(dimethylamino)acetamide] |
| 10 to 100 nM | CN(C)C1(CNC(=O)C2(c3ccc(-c4cccn4C)nc3)CCN(c3ccc(C(F)(F)F)cc3C#N)CC2)CC1 [Compound 1-263, 1-[2-cyano-4-(trifluoromethyl)phenyl]-N-{[1-(dimethylamino)cyclopropyl]methyl}-4-[6-(1-methyl-1H-pyrrol-2-yl)pyridin-3-yl]piperidine-4-carboxamide] |
